Experimental data: ChEMBL document CHEMBL1833895, “Synthesis and biological activity of desmethoxy analogues of coruscanone A” (Bioorg Med Chem Lett, 2011)

Key:
[1] = tested on: Lichtheimia corymbifera; test: Antifungal activity against Absidia corymbifera 272 after 24 hrs by microdilution method; assay type: functional, organism-based; settings: Lichtheimia corymbifera, 272, 24 h
[2] = tested on: CCRF-CEM; test: Cytostatic activity against human CCRF-CEM cells after 72 hrs by XTT assay; assay type: ADME, cell-based
[3] = tested on: HT-29; test: Cytostatic activity against human HT-29 cells at 10 umol/L after 72 hrs by XTT assay; assay type: ADME, cell-based; settings: ht-29, 72 h, 10 µM
[4] = tested on: Candida albicans; test: Antifungal activity against Candida albicans ATCC 90028 after 48 hrs by microdilution method; assay type: functional; settings: ATCC 90028, 48 h
[5] = tested on: Pichia kudriavzevii; test: Antifungal activity against Candida krusei E28 after 48 hrs by microdilution method; assay type: functional; settings: E28, 48 h
[6] = Cytostatic activity against human COLO201 cells at 10 umol/L after 72 hrs by XTT assay; assay type: ADME, cell-based; settings: colo 201, 72 h, 10 µM
[7] = tested on: Candida tropicalis; test: Antifungal activity against Candida tropicalis 156 after 24 hrs by microdilution method; assay type: functional; settings: Candida tropicalis, 156, 24 h
[8] = tested on: Trichosporon asahii; test: Antifungal activity against Trichosporon asahii 1188 after 24 hrs by microdilution method; assay type: functional; settings: Trichosporon asahii, 1188, 24 h
[9] = tested on: Trichophyton mentagrophytes; test: Antifungal activity against Trichophyton mentagrophytes 445 after 120 hrs by microdilution method; assay type: functional, organism-based; settings: Trichophyton mentagrophytes, 445, 120 h
[10] = Cytostatic activity against human HeLaS3 cells after 48 hrs by XTT assay; assay type: ADME, cell-based; settings: HeLa S3, 48 h
[11] = tested on: Candida parapsilosis; test: Antifungal activity against Candida parapsilosis ATCC 22019 after 24 hrs by microdilution method; assay type: functional; settings: Lodderomyces parapsilosis, ATCC 22019, 24 h
[12] = tested on: Trichophyton mentagrophytes; test: Antifungal activity against Trichophyton mentagrophytes 445 after 72 hrs by microdilution method; assay type: functional, organism-based; settings: Trichophyton mentagrophytes, 445, 72 h
[13] = tested on: Nakaseomyces glabratus; test: Antifungal activity against Candida glabrata 20/I after 24 hrs by microdilution method; assay type: functional
[14] = tested on: Candida parapsilosis; test: Antifungal activity against Candida parapsilosis ATCC 22019 after 48 hrs by microdilution method; assay type: functional; settings: Lodderomyces parapsilosis, ATCC 22019, 48 h
[15] = tested on: Pichia kudriavzevii; test: Antifungal activity against Candida krusei ATCC 6258 after 48 hrs by microdilution method; assay type: functional; settings: ATCC 6258, 48 h
[16] = tested on: Lichtheimia corymbifera; test: Antifungal activity against Absidia corymbifera 272 after 48 hrs by microdilution method; assay type: functional, organism-based; settings: Lichtheimia corymbifera, 272, 48 h
[17] = tested on: Trichosporon asahii; test: Antifungal activity against Trichosporon asahii 1188 after 48 hrs by microdilution method; assay type: functional; settings: Trichosporon asahii, 1188, 48 h
[18] = tested on: Nakaseomyces glabratus; test: Antifungal activity against Candida glabrata 20/I after 48 hrs by microdilution method; assay type: functional
[19] = tested on: Candida albicans; test: Antifungal activity against Candida albicans ATCC 44859 after 24 hrs by microdilution method; assay type: functional; settings: ATCC 44859, 24 h
[20] = tested on: Candida tropicalis; test: Antifungal activity against Candida tropicalis 156 after 48 hrs by microdilution method; assay type: functional; settings: Candida tropicalis, 156, 48 h
[21] = tested on: Candida albicans; test: Antifungal activity against Candida albicans ATCC 90028 after 24 hrs by microdilution method; assay type: functional; settings: ATCC 90028, 24 h
[22] = tested on: Aspergillus fumigatus; test: Antifungal activity against Aspergillus fumigatus 231 after 48 hrs by microdilution method; assay type: functional, organism-based; settings: Aspergillus fumigatus, 231, 48 h
[23] = tested on: HL-60; test: Cytostatic activity against human HL60 cells at 10 umol/L after 72 hrs by XTT assay; assay type: ADME, cell-based; settings: hl-60, 72 h, 10 µM
[24] = tested on: Aspergillus fumigatus; test: Antifungal activity against Aspergillus fumigatus 231 after 24 hrs by microdilution method; assay type: functional, organism-based; settings: Aspergillus fumigatus, 231, 24 h
[25] = tested on: L1210; test: Cytostatic activity against mouse L1210 cells at 10 umol/L after 72 hrs by XTT assay; assay type: ADME, cell-based; settings: l1210, 72 h, 10 µM
[26] = tested on: Clavispora lusitaniae; test: Antifungal activity against Candida lusitaniae 2446/I after 24 hrs by microdilution method; assay type: functional
[27] = tested on: Candida albicans; test: Antifungal activity against Candida albicans ATCC 44859 after 48 hrs by microdilution method; assay type: functional; settings: ATCC 44859, 48 h
[28] = tested on: Pichia kudriavzevii; test: Antifungal activity against Candida krusei ATCC 6258 after 24 hrs by microdilution method; assay type: functional; settings: ATCC 6258, 24 h
[29] = tested on: Clavispora lusitaniae; test: Antifungal activity against Candida lusitaniae 2446/I after 48 hrs by microdilution method; assay type: functional
[30] = tested on: Pichia kudriavzevii; test: Antifungal activity against Candida krusei E28 after 24 hrs by microdilution method; assay type: functional; settings: E28, 24 h
[31] = Cytostatic activity against human COLO201 cells after 72 hrs by XTT assay; assay type: ADME, cell-based; settings: COLO 201, 72 h
[32] = tested on: L1210; test: Cytostatic activity against mouse L1210 cells after 72 hrs by XTT assay; assay type: ADME, cell-based; settings: L1210, 72 h
[33] = tested on: HL-60; test: Cytostatic activity against human HL60 cells after 72 hrs by XTT assay; assay type: ADME, cell-based; settings: HL-60, 72 h

IC50 [2] [µM] | IC50 [9] [µM] | Structure (SMILES) | IC80 [1] [µM] | Activity [3] | IC80 [4] [µM] | IC80 [5] [µM] | IC80 [7] [µM] | IC80 [8] [µM] | IC50 [10] [µM] | IC80 [12] [µM] | IC80 [13] [µM] | IC80 [16] [µM] | IC80 [17] [µM] | IC80 [18] [µM] | IC80 [19] [µM] | IC80 [20] [µM] | IC80 [22] [µM] | IC80 [24] [µM] | IC80 [27] [µM] | IC80 [30] [µM] | also measured
1.8 | 15.6 | O=C1C=CC(=O)C1=Cc1ccc(Br)cc1 | > 125 | Non-toxic | 15.6 | 15.6 | 15.6 | 15.6 | 4.9 | 15.6 | 15.6 | > 125 | 15.6 | 15.6 | 7.81 | 15.6 | 31.2 | 31.2 | 15.6 | 15.6 | Activity [6]: Non-toxic; IC80 [11]: 15.6 µM; IC80 [14]: 15.6 µM; IC80 [15]: 15.6 µM; IC80 [21]: 15.6 µM; Activity [23]: Non-toxic; Activity [25]: Non-toxic; IC80 [26]: 15.6 µM; IC80 [28]: 15.6 µM; IC80 [29]: 15.6 µM
2.5 | 7.81 | O=C1C=CC(=O)C1=Cc1ccco1 | 250 | Non-toxic | 15.6 | 15.6 | 15.6 | 15.6 | 7.3 | 7.81 | 15.6 | > 500 | 31.2 | 15.6 | 7.81 | 15.6 | 31.2 | 15.6 | 15.6 | 15.6 | Activity [6]: Non-toxic; IC80 [11]: 15.6 µM; IC80 [14]: 15.6 µM; IC80 [15]: 15.6 µM; IC80 [21]: 15.6 µM; Activity [23]: Non-toxic; Activity [25]: Non-toxic; IC80 [26]: 15.6 µM; IC80 [28]: 7.81 µM; IC80 [29]: 15.6 µM
3.7 | 15.6 | O=C1C=CC(=O)C1=Cc1ccc2ccccc2c1 | 125 | Non-toxic | 15.6 | 31.2 | 31.2 | 15.6 | 13.5 | 7.81 | 31.2 | > 125 | 62.5 | 31.2 | 15.6 | 31.2 | 31.2 | 15.6 | 15.6 | 31.2 | IC80 [11]: 15.6 µM; IC80 [14]: 15.6 µM; IC50 [31]: 2.4 µM; IC80 [15]: 31.2 µM; IC80 [21]: 15.6 µM; Activity [23]: Non-toxic; Activity [25]: Non-toxic; IC80 [26]: 15.6 µM; IC80 [28]: 15.6 µM; IC80 [29]: 15.6 µM
3.6 | 7.81 | COC(/C=C/c1ccccc1)=C1\C(=O)C=C(C)C1=O [CORUSCANONE A] | 31.2 | – | – | 250 | 3.91 | 0.98 | – | 3.91 | 125 | 250 | 7.81 | 125 | 0.98 | 7.1 | 250 | 31.2 | 3.91 | 125 | IC50 [32]: 3.8 µM; IC50 [33]: 4.5 µM
